Measured values: ChEMBL document CHEMBL4837249, “Discovery of Potent Antiallergic Agents Based on an o-Aminopyridinyl Alkynyl Scaffold” (J Med Chem, 2021)
pIC50: −log10 of the molar value.

Columns and labels:
RBL-2H3 [1] = assay: Antiallergic activity against anti-DNP-IgE sensitized rat RBL-2H3 cells assessed as […] of degranulation by measuring beta-hexosaminidase release using P-nitrophenyl-N-acetyl-D-glucosamide as substrate measured after 1 hr by microplate reader; assay type: functional, cell-based; details: RBL-2H3, 1 h
RBL-2H3 [2] = assay: Antiallergic activity against anti-DNP-IgE sensitized rat RBL-2H3 cells assessed as […] of degranulation by measuring beta-hexosaminidase release using P-nitrophenyl-N-acetyl-D-glucosamide as substrate at 1 uM measured after 1 hr by microplate reader relative to control; assay type: functional
RBL-2H3 [3] = assay: Antiallergic activity against anti-DNP-IgE sensitized rat RBL-2H3 cells assessed as […] of degranulation by measuring beta-hexosaminidase release using P-nitrophenyl-N-acetyl-D-glucosamide as substrate at 0.2 uM measured after 1 hr by microplate reader relative to control; assay type: functional
RBL-2H3 [4] = assay: Antiallergic activity against anti-DNP-IgE sensitized rat RBL-2H3 cells assessed as […] of degranulation by measuring beta-hexosaminidase release using P-nitrophenyl-N-acetyl-D-glucosamide as substrate at 0.04 uM measured after 1 hr by microplate reader relative to control; assay type: functional
[5] = Therapeutic index, ratio of CC50 for rat RBL2H3 cells to IC50 for Antiallergic activity against anti-DNP-IgE sensitized rat RBL-2H3 cells; assay type: toxicity; details: read-out: TI
[6] = molecular target: Macrophage colony-stimulating factor 1 receptor (Homo sapiens, UniProt P07333); assay: Inhibition of human recombinant CSF1R using ATP/Ulight-TK peptide incubated for 15 mins
Macrophage colony-stimulating factor 1 receptor, sequence (P07333 whole entry): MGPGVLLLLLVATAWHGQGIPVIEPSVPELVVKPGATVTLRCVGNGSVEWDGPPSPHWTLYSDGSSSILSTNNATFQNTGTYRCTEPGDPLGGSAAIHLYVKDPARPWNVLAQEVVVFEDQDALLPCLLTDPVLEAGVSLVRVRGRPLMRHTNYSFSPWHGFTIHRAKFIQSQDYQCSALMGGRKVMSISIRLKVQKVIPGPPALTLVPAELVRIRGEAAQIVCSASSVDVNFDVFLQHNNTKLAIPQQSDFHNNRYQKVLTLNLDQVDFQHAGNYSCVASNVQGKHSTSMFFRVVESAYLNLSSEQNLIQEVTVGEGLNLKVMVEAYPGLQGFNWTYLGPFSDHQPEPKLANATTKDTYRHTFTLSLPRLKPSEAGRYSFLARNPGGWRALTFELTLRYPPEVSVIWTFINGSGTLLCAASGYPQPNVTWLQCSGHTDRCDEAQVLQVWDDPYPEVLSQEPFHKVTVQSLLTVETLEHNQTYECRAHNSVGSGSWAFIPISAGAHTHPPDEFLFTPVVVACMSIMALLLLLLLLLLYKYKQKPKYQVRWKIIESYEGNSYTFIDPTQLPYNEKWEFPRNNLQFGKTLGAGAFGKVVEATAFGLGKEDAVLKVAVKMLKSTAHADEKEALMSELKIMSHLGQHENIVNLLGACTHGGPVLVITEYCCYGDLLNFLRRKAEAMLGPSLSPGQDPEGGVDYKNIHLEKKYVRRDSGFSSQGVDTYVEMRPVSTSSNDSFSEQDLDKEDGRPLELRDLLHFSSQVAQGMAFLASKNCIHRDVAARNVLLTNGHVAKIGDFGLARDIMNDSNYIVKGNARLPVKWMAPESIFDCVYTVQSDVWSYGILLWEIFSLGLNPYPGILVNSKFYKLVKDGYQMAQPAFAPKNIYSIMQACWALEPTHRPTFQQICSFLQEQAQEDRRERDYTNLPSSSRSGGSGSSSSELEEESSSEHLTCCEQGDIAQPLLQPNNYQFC

pIC50 [6]	SMILES	pIC50 (RBL-2H3 [1])	inhibition at 1 µM (RBL-2H3 [2]) [%]	inhibition at 0.2 µM (RBL-2H3 [3]) [%]	inhibition at 0.04 µM (RBL-2H3 [4]) [%]	selectivity ratio [5]
–	COc1cc(NC(=O)c2ccc(C)c(C#Cc3cc(-c4cnn(C)c4)cnc3N)c2)cc(OC)c1	7.59	108	61.7	20.1	15.4
–	Cc1ccc(C(=O)Nc2ccccc2)cc1C#Cc1cc(-c2cnn(C)c2)cnc1N	–	65.3	40.9	28.6	–
–	Cc1ccc(C(=O)Nc2ccc(CN3CCN(C)CC3)c(C(F)(F)F)c2)cc1C#Cc1cnc2cccnn12 [PONATINIB]	6.83	–	–	–	–
–	COc1cc(NC(=O)c2ccc(C)c(C#Cc3cc(C(N)=O)cnc3N)c2)cc(OC)c1	–	74.2	13.7	10.8	–
–	COc1cccc(NC(=O)c2ccc(C)c(C#Cc3cc(-c4cnn(C)c4)cnc3N)c2)c1	7.66	125	80.5	–	–
7.62	Cc1ccc(C(=O)Nc2cccc(OC(F)(F)F)c2)cc1C#Cc1cc(-c2cnn(C)c2)cnc1N	8.15	150	138	81.1	12.9
–	Cc1ccc(C(=O)NC2CCCCC2)cc1C#Cc1cc(-c2cnn(C)c2)cnc1N	–	63.7	–	0.18	–
–	Cc1ccc(C(=O)Nc2cccc(Cl)c2)cc1C#Cc1cc(-c2cnn(C)c2)cnc1N	8.18	118	82.9	49	3.8
–	Cc1ccc(C(=O)Nc2cccc(C(F)(F)F)c2)cc1C#Cc1cc(-c2cnn(C)c2)cnc1N	8.56	113	109	88.9	2.5
–	Cc1ccc(C(=O)Nc2ccc3c(c2)OCCO3)cc1C#Cc1cc(-c2cnn(C)c2)cnc1N	7.17	132	102	66.8	–
–	COc1cc(NC(=O)c2ccc(C(F)(F)F)c(C#Cc3cc(-c4cnn(C)c4)cnc3N)c2)cc(OC)c1	–	15.7	-2.84	-3.24	–
–	Cc1ccc(C(=O)Nc2ccccc2Cl)cc1C#Cc1cc(-c2cnn(C)c2)cnc1N	–	25	-5.24	-4.58	–
–	Cc1ccc(C(=O)Nc2ccc(C(F)(F)F)cc2)cc1C#Cc1cc(-c2cnn(C)c2)cnc1N	8.22	78.4	60.8	51.1	2.3
–	COc1cc(NC(=O)c2ccc(C)c(C#Cc3cccnc3N)c2)cc(OC)c1	–	55.9	3.01	4.26	–
–	Cc1ccc(C(=O)Nc2ccc(C(F)(F)F)c(C(F)(F)F)c2)cc1C#Cc1cc(-c2cnn(C)c2)cnc1N	7.23	144	–	40.5	–
–	COc1cc(NC(=O)c2cccc(C#Cc3cc(-c4cnn(C)c4)cnc3N)c2)cc(OC)c1	–	41	272	1.08	–
–	Cc1ccc(C(=O)Nc2ccccn2)cc1C#Cc1cc(-c2cnn(C)c2)cnc1N	–	60.6	21.1	2.86	–
–	COc1cc(NC(=O)c2cccc(C#Cc3cc(-c4cnn(C)c4)cnc3N)c2OC)cc(OC)c1	–	22.8	6.7	0	–

pIC50 [6]	SMILES	pIC50 (RBL-2H3 [1])	inhibition at 1 µM (RBL-2H3 [2]) [%]	inhibition at 0.2 µM (RBL-2H3 [3]) [%]	inhibition at 0.04 µM (RBL-2H3 [4]) [%]	selectivity ratio [5]
–	Cc1ccc(C(=O)Nc2ccc(Cl)c(Cl)c2)cc1C#Cc1cc(-c2cnn(C)c2)cnc1N	–	65	40.6	39.8	–
–	COc1cc(NC(=O)c2ccc(F)c(C#Cc3cc(-c4cnn(C)c4)cnc3N)c2)cc(OC)c1	–	30.9	0.83	2.34	–
–	CNC(=O)c1cnc(N)c(C#Cc2cc(C(=O)Nc3cc(OC)cc(OC)c3)ccc2C)c1	–	66.2	26.8	14.7	–
–	COc1cc(NC(=O)c2ccc(Br)c(C#Cc3cc(-c4cnn(C)c4)cnc3N)c2)cc(OC)c1	–	79.2	36.6	22.6	–
–	COc1ccc(NC(=O)c2ccc(C)c(C#Cc3cc(-c4cnn(C)c4)cnc3N)c2)cc1	7.98	101	66.9	41.5	–
–	COc1ccc(NC(=O)c2ccc(C)c(C#Cc3cc(-c4cnn(C)c4)cnc3N)c2)cc1OC	–	82.2	49.7	23.7	–
–	COc1ccccc1NC(=O)c1ccc(C)c(C#Cc2cc(-c3cnn(C)c3)cnc2N)c1	–	73.5	–	10.2	–
–	COc1cc(NC(=O)c2ccc(C(C)C)c(C#Cc3cc(-c4cnn(C)c4)cnc3N)c2)cc(OC)c1	–	-1.01	-7.82	-8.56	–
–	COc1cc(NC(=O)c2cccc(C#Cc3cc(-c4cnn(C)c4)cnc3N)c2C)cc(OC)c1	–	18.3	8.75	3.11	–
–	COc1cc(NC(=O)c2cccc(C#Cc3cc(-c4cnn(C)c4)cnc3N)c2F)cc(OC)c1	–	33	24.8	34	–
–	COc1cc(NC(=O)c2ccc(OC)c(C#Cc3cc(-c4cnn(C)c4)cnc3N)c2)cc(OC)c1	–	34	18	11	–
–	FC(F)(F)c1ccc(CNc2ccc(Cc3c[nH]c4ncc(Cl)cc34)cn2)cn1 [PEXIDARTINIB]	< 6.00	–	–	–	–
–	COc1cc(NC(=O)c2ccc(Cl)c(C#Cc3cc(-c4cnn(C)c4)cnc3N)c2)cc(OC)c1	–	52.5	9.97	0	–
7.52	Cc1ccc(C(=O)Nc2ccc(Cl)c(C(F)(F)F)c2)cc1C#Cc1cc(-c2cnn(C)c2)cnc1N	7.89	170	145	76.1	13.9
–	CCNc1ncc(-c2cnn(C)c2)cc1C#Cc1cc(C(=O)Nc2cc(OC)cc(OC)c2)ccc1C	–	95.4	45.3	16.8	–
8.10	COc1cc(NC(=O)c2ccc(C)c(C#Cc3cc(-c4cnn(C)c4)cnc3N)c2)cc(OC)c1OC	8.13	131	103	82.6	2.2
–	COc1cc(NC(=O)c2ccc(C)c(C#Cc3cc(Cl)cnc3N)c2)cc(OC)c1	–	50.9	37	-1.58	–
–	Cc1ccc(C(=O)Nc2ccc(Cl)cc2)cc1C#Cc1cc(-c2cnn(C)c2)cnc1N	7.62	89.5	68.6	52	11.3
